Earlier results, collected in article PMC12505607 (BMC Medicine, 2025).
Like-named read-outs stand apart in the source and are kept apart here.

Legend:
[1] = tested on: MATE2-K
[2] = tested on: MATE1
[3] = tested on: OCT2
[4] = tested on: patients

Compound	MATE2-K inhibition [1]	MATE1 inhibition [2]	OCT2 inhibition [3]	recommended dose for combination with endocrine therapy ([4]; in vivo)	patients with grade 3 fatigue as DLTs ([4]; phase 1 dose-escalation study)	incidence of grades 3–4 neutropenia ([4]; phase 1 study)	incidence of grades 3–4 neutropenia ([4]; in vivo)
CCN1CCN(Cc2ccc(Nc3ncc(F)c(-c4cc(F)c5nc(C)n(C(C)C)c5c4)n3)nc2)CC1 [abemaciclib]	inhibition	inhibition	inhibition	150 mg BID	4 patients	32.0%	
CC(=O)c1c(C)c2cnc(Nc3ccc(N4CCNCC4)cn3)nc2n(C2CCCC2)c1=O [palbociclib]							33.0%
CN(C)C(=O)c1cc2cnc(Nc3ccc(N4CCNCC4)cn3)nc2n1C1CCCC1 [ribociclib]						27.0%	
